Source: US4223031A, “Azolopyrimidinones” (priority 1978, dated 1980)
Where two headings read alike, the source gives them in different places.

Tests used:
[1] = test system: passive cutaneous anaphylaxis reaction (PCA); test: passive cutaneous anaphylaxis reaction (PCA) in the rat; type: in vivo; details: for ED50 / PCA Response, percent inhibition at the dose specified: rat; for ED50: read-out: PCA Response, ED 50; for antiallergic activity: rat PCA, result in words
Protocol: Twelve days after injection, the serum is collected and the antibody titer is determined. The sera which contain sufficient antibody to cause a 10 mm. spot in the dorsal skin of the rat in the PCA test after a 10-fold dilution are pooled. […] The selected reaginic anti-sera are stored frozen until use. For carrying out the test, groups of 5 to 10 male Sprague-Dawley (Carworth Farms) rats, each rat weighing 100-150 g., are used. Forty-eight hours prior to the test, the animals are passively sensitized by intradermal injection of 0.1 ml. of the above diluted antiserum at various locations on the shaved skin of the back. A dilution of antiserum is used so that a spot following challenge of 20-25 mm. in diameter is obtained. Challenge consists of an intravenous injection of 25 mg./kg. of body weight of egg albumin and a like amount of Evan's blue dye in saline. […] A latent period of 48 hrs. is allowed before the animals are treated with the test drug administered by either intraperitoneal or intravenous injection or orally by gavage. Challenge as described above is given 15 min. subsequent to treatment with the test drug. The response to the antigen challenge in the sensitized localities on the skin is an increased capillary permeability and leakage of the blue dye into the area surrounding the sensitized site. The PCA response is scored by measuring the mean spot diameter on the excised and reversed skin 20-30 min. after challenge. In each experiment a group of control animals receiving no drug is employed. The percent inhibition of the PCA is calculated by determining the mean diameters of the spots in the control and treated animals and computing the difference between the squares of the mean diameters of the control animals and the treated animals and expressing this difference as a percentage of the square of the mean diameter of the control animals. Results are expressed as percent inhibition. […] In other modifications, various time intervals are allowed between drug treatment and challenge to ascertain the duration of drug effect.

guinea pig trachea = test: relaxation of the spontaneous tonus of the isolated guinea pig trachea (tracheal spiral) in vitro; details: for relaxation of the spontaneous tonus of the guinea pig trachea in vitro: guinea pig trachea / tracheal spiral, result in words
Protocol: The new compounds of Formulas III and IV are also considered part of the present invention since they are useful as intermediates for the production of the substances of Formula I. Some of the substances of Formulas III and IV also have biological utility in addition to their utility as intermediates. […] It is 13.2 times as potent as theophylline in relaxing the spontaneous tonus of the isolated guinea pig tracheal spiral. […] In both instances, the drug was administered orally.

in vivo = details: po, rat, treated orally, read-out: approximate LD50

Compound	ED50 ([1]; po, p.o.) [mg/kg]	relaxation of the spontaneous tonus of the guinea pig trachea in vitro (guinea pig trachea)	other results
N#CC(=CNc1nc2ccccc2s1)c1nnn[nH]1 [Example 14, N-[2-Cyano-2-(1H-tetrazol-5-yl)ethenyl]-benzothiazol-2-amine]	32		antiallergic activity [1]: antiallergic activity similar to those substances of Formula I
COc1ccc2c(c1)sc1ncc(-c3nnn[nH]3)c(=O)n12 [Example 31, 8-Methoxy-3-(1H-tetrazol-5-yl)-4H-pyrimido-[2,1-b]benzothiazol-4-one]	1.88	cause relaxation	
Cc1cc2sc3ncc(-c4nnn[nH]4)c(=O)n3c2cc1C [Example 32, 7,8-Dimethyl-3-(1H-tetrazol-5-yl)-4H-pyrimido[2,1-b]benzothiazol-4-one]		cause relaxation	PCA Response, percent inhibition at the dose specified ([1]; 25 mg/kg, p.o.): 34.9%
Cc1cc(C)c2sc3ncc(-c4nnn[nH]4)c(=O)n3c2c1 [Example 25, 7,9-Dimethyl-3-(1H-tetrazol-5-yl)-4H-pyrimido[2,1-b]benzothiazol-4-one]		cause relaxation	
O=c1c(-c2nnn[nH]2)cnc2sccn12 [Example 33, 6-(1H-Tetrazol-5-yl)-5H-thiazolo[3,2-a]-pyrimidin-5-one]			PCA Response, percent inhibition at the dose specified ([1]; 10 mg/kg, p.o.): 57%
Cc1csc2ncc(-c3nnn[nH]3)c(=O)n12 [Example 28, 3-Methyl-6-(1H-tetrazol-5-yl)-5H thiazolo[3,2-a]pyrimidine-5-one]		cause relaxation	PCA Response, percent inhibition at the dose specified ([1]; 25 mg/kg, p.o.): 39%
Cc1csc(NC=C(C#N)c2nnn[nH]2)n1 [Example 17, 3-[(4-Methylthiazol-2-yl)amino]-2-(1H-tetrazol-5-yl)-2-propenenitrile]			antiallergic activity [1]: antiallergic activity similar to those substances of Formula I; PCA Response, percent inhibition at the dose specified ([1]; 25 mg/kg, p.o.): 36.7%
N=c1c(-c2nnn[nH]2)cnc2[nH]cnn12 [Example 15, 3,7-Dihydro-6-(1H-tetrazol-5-yl)-s-triazolo-[1,5-a]pyrimidin-7-imine]		inactive	PCA Response, percent inhibition at the dose specified ([1]; 10 mg/kg, p.o.): 36.1%
Cc1csc(NC=C(C#N)C#N)n1 [Example 5, 2-[[(4-methylthiazol-2-yl)amino]methylene]propanedinitrile]		substantial tracheal relaxant action	potency relative to theophylline in relaxing the spontaneous tonus of the isolated guinea pig tracheal spiral (guinea pig trachea; isolated guinea pig tracheal spiral): 13.2 times as potent as theophylline
Cl.N=c1c(-c2nnn[nH]2)cnc2sc3ccccc3n12 [Example 23, 3-(1H-Tetrazol-5-yl)-4H-pyrimido[2,1-b]-benzothiazol-4-imine Hydrochloride]	2.9	cause relaxation	
O=c1c(-c2nnn[nH]2)cnc2sc3ccccc3n12 [Example 24, 3-(1H-Tetrazol-5-yl)-4H-pyrimido[2,1-b]-benzothiazol-4-one]	0.064	cause relaxation	ED50 ([1]; iv, i.v.): 0.0049 mg/kg; LD50 (in vivo): 2000 to 5000 mg/kg
N=c1c(-c2nnn[nH]2)cnc2sccn12 [Example 22, 6-(1H-Tetrazol-5-yl)-5H-thiazole[3,2-a]-pyrimidine-5-imine]			PCA Response, percent inhibition at the dose specified ([1]; 10 mg/kg, p.o.): 22.4%
